Laboratory results published in patent US8337835B2, “Use of an endogenous ligand for peroxisome proliferator activated receptor alpha to treat liver disorders” (priority 2009, dated 2012).

Tested on: PPARα target gene (ACO and CPT-1) expression
Assay: PPARα target gene (ACO and CPT-1) expression by quantitative RT-PCR in Hepa 1-6 cells
Type: cell-based
Conditions: Hepa 1-6 mouse hepatoma cells, 24 h, serum-free DMEM
Description: RT-PCR gene expression analysis and binding assays were employed to address this objective. Wy14,643, 16:0/18:1-GPC, and 18:1/16:0-GPC on PPARα target gene (ACO and CPT-1) expression was measured by quantitative RT-PCR in Hepa 1-6 cells treated for 24 h as in FIG. 6A. Results are mean±SEM of 9 separate experiments. *, P<0.05 compared to control (Ctrl, 80% PBS/20% DMSO).
The C57BL/6 mouse hepatoma cell line Hepa 1-6 (ATCC, CRL-1830) was expanded in DMEM with 10% fetal bovine serum. For experiments, cells were cultured to 50-60% confluence, washed twice with PBS, and the medium was changed to serum-free DMEM supplemented with the various types and concentrations of phosphatidylcholine (sonicated to homogeneity in PBS/1% ethanol/4% fatty acid-free BSA), Wy14,643 (dissolved in 80% PBS/20% DMSO), or vehicle-only solutions. 24 h later, cells were washed, RNA prepared, and ACO and CPT-1 expression levels were determined by quantitative RT-PCR (see FIG. 6). For siRNA experiments, 50-60% confluent cells were treated with siRNAs or their scrambled controls (all diluted in PBS) for 72 h. Following the 72 h siRNA treatment, another set of cells received 16:0/18:1-GPC (using a concentration based on dose-response experiments) for an additional 24 h. Stealth™ siRNA oligonucleotides were used to inhibit the gene expression of mouse ChPT1 ([…]) (SEQ ID NO: 1) and CEPT1 ([…]) (SEQ ID NO: 2) were from Invitrogen (Carlsbad, Calif.).
Total RNA was extracted from Hepa 1-6 cells and liver using Trizol (Invitrogen) and treated with DNase I (RNase-free, Roche Molecular Biochemicals). Reverse transcription to cDNA and real-time quantitative PCR were performed using previously published procedures and primer-probe sequences for ACO and CPT-1 (Chakravarthy et al., 2005). […] Relative mRNA levels were calculated using both the comparative CT and standard curve methods normalized to ribosomal protein L32, an invariant internal control. […]

`CCCCCCCC/C=C\CCCCCCCC(=O)OC[C@H](COP(=O)([O-])OCC[N+](C)(C)C)OC(=O)CCCCCCCCCCCCCCC` [18:1/16:0-GPC, 1-oleoyl-2-palmitoyl-sn-glycero-3-phosphocholine, reference compound] was tested, and the “expression of PPARα-dependent genes ACO and CPT-I” value was “does not induce PPARα-dependent gene expression”.
